Measurements published in PMC13026664, “Transcriptional Activation of Estrogen Receptor-Alpha and Estrogen Receptor-Beta from Elephant Shark (Callorhynchus milii)” (Genes, 2026).

Key:
elephant shark ERa3 = molecular target: T1, elephant shark ERa3 (Callorhinchus milii, UniProt A0A1V1FR36)
T1 sequence (A0A1V1FR36 1-596): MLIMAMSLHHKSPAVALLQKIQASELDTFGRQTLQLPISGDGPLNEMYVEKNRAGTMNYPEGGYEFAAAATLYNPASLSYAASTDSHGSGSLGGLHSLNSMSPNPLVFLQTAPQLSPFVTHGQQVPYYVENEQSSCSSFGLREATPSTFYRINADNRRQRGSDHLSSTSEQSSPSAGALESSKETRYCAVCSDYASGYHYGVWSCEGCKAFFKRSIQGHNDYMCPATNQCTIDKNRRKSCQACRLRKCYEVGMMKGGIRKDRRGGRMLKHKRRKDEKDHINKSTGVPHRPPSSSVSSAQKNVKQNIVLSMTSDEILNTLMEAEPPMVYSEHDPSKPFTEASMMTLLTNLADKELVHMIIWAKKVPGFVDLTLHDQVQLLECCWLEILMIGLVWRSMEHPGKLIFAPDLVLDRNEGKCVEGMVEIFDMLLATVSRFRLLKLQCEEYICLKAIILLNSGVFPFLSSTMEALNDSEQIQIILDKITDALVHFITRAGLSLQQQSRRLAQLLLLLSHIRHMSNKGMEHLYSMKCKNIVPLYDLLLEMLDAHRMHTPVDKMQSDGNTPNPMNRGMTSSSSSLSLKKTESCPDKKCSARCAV
Procedure: (§1) Full-length estrogen receptors were amplified using specific forward and reverse primers designed at start and stop codons and cloned into the mammalian expression vector pcDNA3.1 (Invitrogen). In addition, ERs with a FLAG-tag added to the N-terminus were also prepared by PCR. A reporter construct, pGL4.23-4xERE, was produced by subcloning of oligonucleotides having 4xERE into the KpnI-HindIII site of pGL4.23 vector (Promega, Madison, WI, USA). All cloned DNA sequences were verified by sequencing.
(§2) Reporter gene assays using full-length ERs were performed in Human Embryonic Kidney 293 cells (HEK293 cells). HEK293 cells were seeded in 24-well plates at 5 × 10^4 cells/well in phenol-red-free Dulbecco’s modified Eagle’s medium with 10% charcoal/dextran-treated fetal bovine serum. After 24 h, the cells were transfected with 400 ng of reporter construct, 25 ng of pRL-TK (as an internal control to normalize the variation in transfection efficiency; contains the Renilla reniformis luciferase gene with the herpes simplex virus thymidine kinase promoter), and 200 ng of pcDNA3.1-estrogen receptor using polyethylenimine (PEI). After 5 h of incubation, ligands were applied to the medium at various concentrations. After an additional 43 h, the cells were collected, and the luciferase activity of the cells was measured with the Dual-Luciferase Reporter Assay System. Promoter activity was calculated as firefly (Photinus pyralis) luciferase activity/sea pansy (R. reniformis) luciferase activity. […] All experiments were performed in triplicate.
(§3) Elephant shark ERs were transfected into HEK293 cells with an ERE-driven reporter gene. […] Data are expressed as a ratio of a vehicle (DMSO) to other test chemicals. Each point represents the mean of triplicate determinations, and vertical bars represent the mean ± SEM.

elephant shark ERa2 = molecular target: T2, elephant shark ERa2 (Callorhinchus milii, UniProt A0A1V1FR36)
T2 sequence (A0A1V1FR36 1-596): T1 sequence (A0A1V1FR36 1-596)
Procedure: as §1, §2, §3

elephant shark ERa1 = molecular target: T3, elephant shark ERa1 (Callorhinchus milii, UniProt A0A1V1FR36); experiment: cell-based
T3 sequence (A0A1V1FR36 1-596): T1 sequence (A0A1V1FR36 1-596)
Procedure: as §1, §2, §3

elephant shark ERb = molecular target: T4, elephant shark ERb (Callorhinchus milii, UniProt A0A1V1FJE9); experiment: cell-based
T4 sequence (A0A1V1FJE9 1-580): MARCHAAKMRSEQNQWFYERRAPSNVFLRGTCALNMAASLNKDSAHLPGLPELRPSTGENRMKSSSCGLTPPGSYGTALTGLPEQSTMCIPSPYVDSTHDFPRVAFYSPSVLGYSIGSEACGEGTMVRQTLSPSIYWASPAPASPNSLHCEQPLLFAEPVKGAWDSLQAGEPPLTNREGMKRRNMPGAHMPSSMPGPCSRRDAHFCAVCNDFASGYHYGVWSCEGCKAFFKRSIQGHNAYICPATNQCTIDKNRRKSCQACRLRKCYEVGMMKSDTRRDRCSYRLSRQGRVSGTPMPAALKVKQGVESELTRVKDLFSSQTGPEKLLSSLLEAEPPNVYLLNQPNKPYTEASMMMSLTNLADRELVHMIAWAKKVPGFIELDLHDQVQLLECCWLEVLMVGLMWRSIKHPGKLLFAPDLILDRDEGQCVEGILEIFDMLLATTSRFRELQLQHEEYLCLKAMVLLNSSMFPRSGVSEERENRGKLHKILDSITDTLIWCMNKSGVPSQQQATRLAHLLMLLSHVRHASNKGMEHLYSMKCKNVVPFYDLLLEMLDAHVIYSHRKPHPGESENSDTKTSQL
Procedure: as §1, §2, §3

[1] = system: amphioxus steroid receptor (SR); conditions: cited from earlier work
Atlantic sea lamprey ER = conditions: cited from earlier work
elephant shark ERa4 = experiment: Transcriptional activation of ERa4; type: cell-based, elephant shark (Callorhynchus milii); conditions: ERa4 has a deletion in the DNA-binding domain
Procedure: as §1
Reporter gene assays using full-length ERs were performed in Human Embryonic Kidney 293 cells (HEK293 cells). HEK293 cells were seeded in 24-well plates at 5 × 10^4 cells/well in phenol-red-free Dulbecco’s modified Eagle’s medium with 10% charcoal/dextran-treated fetal bovine serum. […] After an additional 43 h, the cells were collected, and the luciferase activity of the cells was measured with the Dual-Luciferase Reporter Assay System. Promoter activity was calculated as firefly (Photinus pyralis) luciferase activity/sea pansy (R. reniformis) luciferase activity. The values shown are mean ± SEM from three separate experiments, and dose–response data, which were used to calculate the half-maximal response (EC50) for each steroid, were analyzed using GraphPad Prism (Version 11, GraphPad Software, Inc., San Diego, CA, USA). […]

amphioxus ER = conditions: cited from earlier work
[2] = HEK293, 43 h, read-out: Fold-Activation (±SEM)

Compound	Ratio (fold-activation of each estrogen divided by the value of E2) (elephant shark ERa3; ERa3 in HEK293, 10 nM)	Fold-Activation (±SEM) (elephant shark ERa3; ERa3 in HEK293, based on the 10 nM values, ratio to vehicle (DMSO), 2580 min)	EC50 (elephant shark ERa3; read-out: EC50 for transcriptional activation, ERa3 in HEK293, 4xERE luciferase reporter) [nM]	Ratio (fold-activation of each estrogen divided by the value of E2) (elephant shark ERa2; ERa2 in HEK293, 10 nM)	Fold-Activation (±SEM) (elephant shark ERa2; ERa2 in HEK293, based on the 10 nM values, ratio to vehicle (DMSO), 2580 min)	EC50 (elephant shark ERa2; read-out: EC50 for transcriptional activation, ERa2 in HEK293, 4xERE luciferase reporter) [nM]	EC50 (elephant shark ERa1) [nM]	Ratio (fold-activation of each estrogen divided by the value of E2) (elephant shark ERa1; ERa1 in HEK293, 10 nM)	fold induction at 0.01 µM (elephant shark ERa1; [2])	EC50 (elephant shark ERb) [nM]	Ratio (fold-activation of each estrogen divided by the value of E2) (elephant shark ERb; ERb in HEK293, 10 nM)	fold induction at 0.01 µM (elephant shark ERb; [2])	Transcriptional activation of amphioxus SR [1]	Activation of Atlantic sea lamprey ER (Atlantic sea lamprey ER)	Transcriptional activation of ERa4 (elephant shark ERa4)	Binding to amphioxus ER (amphioxus ER)
C[C@]12CC[C@@H]3c4ccc(O)cc4CC[C@H]3[C@@H]1C[C@@H](O)[C@@H]2O [E3, estriol]	1.07	1.87 (±0.15)	0.29	1.02	1.82 (±0.13)	0.31	0.2	0.95	1.57	0.02	1.08	3.49	–	–	–	–
C[C@]12CC[C@@H]3c4ccc(O)cc4CC[C@H]3[C@@H]1CCC2=O [E1, Estrone]	–	–	–	–	–	–	–	–	–	0.14	–	–	transcriptional activators	activated	–	–
C[C@]12CC[C@@H]3c4ccc(O)cc4CC[C@H]3[C@@H]1CC[C@@H]2O [E2, 17b-estradiol]	–	–	–	–	–	–	–	–	–	–	–	–	transcriptional activators	activated	lack of transcriptional activation	does not bind
